# From patent US7495028B2, “R-bambuterol, its preparation and therapeutic uses” (priority 2002, dated 2009)
# Assays:
# [1] = test system: sensitized conscious guinea pigs exposed to aerosol ovalbumin; experiment: Protection against allergic bronchospasm in ovalbumin-sensitized conscious guinea pigs; format: in vivo, guinea pig
# Description: Test method: Guinea pigs (Dunkin-Hartley strain, 200±10 g, equal sexes) were used in this study. Ovalbumin (5%) solution was injected into guinea pigs subcutaneously and intraperitoneally to sensitize the animals. Male and female sensitized animals were kept separately for 14 days, and food and water was available ad libitum. On day 14 after sensitization, animals were randomized into groups of 8 each. The animals were treated orally with saline (control) or various concentrations of R-bambuterol or racemic bambuterol in saline. Four hours after the treatment, each animal was restrained in a glass chamber. After stabilization the animal was exposed to an aerosol of ovalbumin generated by a nebulizer from a 5% solution of ovalbumine at a rate of 0.5 ml/min for a period of 15 seconds. The animal was removed from the chamber, and the behavior of the animal was monitored. The number of the sensitized animals which collapsed were counted, and the latency time, i.e. the time from the exposure to aerosol ovalbumin to the collapse of the animal, was recorded.
# [2] = Serum concentration of active parent form (terbutaline) after oral dosing; format: in vivo, guinea pig; settings: guinea pigs, 8 mg/kg oral, four hours later
# Description: Based on the pharmacokinetic studies of racemic bambuterol hydrochloride, about 50% of absorbed bambuterol is hydrolyzed to terbutaline, the active-parent form, in plasma. There is little cholinesterase in the lung strip preparation, so neither the test compound nor racemic bambuterol has significant effects. In order to test the compound of invention in vitro on isolated guinea-pig lung tissue, R-bambuterol and racemic bambuterol were administrated orally to guinea pigs at a dose of 8 mg/kg. Four hours later, blood was collected from the animals, and the serum containing the active parent form of the test compounds were prepared. The concentration of the active parent form, i.e. terbutaline, in serum measured using BPLC, was 64-70 ng/ml in the animal treated with R-bambuterol and 62-69 ng/ml in the animal treated with racemic bambuterol. The serum containing the active form of test compound was then added into the organ in a certain volume, so that the final concentration of the active forms of test compounds was 0.25 ng/ml in the organ bath. Concentration-response relationships were obtained using a cumulative dose schedule by adding the same volume of the serum into the organ bath. The test using the serum containing the active form of racemic bambuterol was done in parallel with the test compound in the same manner as described above.
# hyperlipidemia mice = experiment: Lipid lowering effects in Tyloxapol-induced hyperlipidemia mice; format: in vivo
# Description: Test method: Male and […] mice, Kunming strain, 35 each, weight 18-22 grams, were used. Food and water were available ad libitum. The animals were randomized into 7 groups (n=10). Groups of animals were administered orafly, via a stomach tube, vehicle (distilled water, two groups), R-bambuterol hydrochloride (10 mg/kg and 5 mg/kg), racemic bambuterol hydrochloride (10 mg/kg and 5 mg/kg) and simvastatin (10 mg/kg) once a day for four days. With the exception of one vehicle—treated group (as control), Tyloxapol (400 mg/kg, Sigma Chemical Co.) was injected into the peritoneal cavity of the mice of all groups immediately after the last treatment on the fourth day in order to induce hyperlipidemia. All the animals were fasted overnight prior to the injection of Tyloxapol. Blood samples were collected by cardiac puncture 24 hours after the injection of Tyloxapol. The blood samples were processed to plasma, and concentration of triglycerides (TG), cholesterol (CHO), high density lipoprotein (HDL), low density lipoprotein (LDL) and very low density lipoprotein (VLDL) were measured with an autoblood analyzer (Olympic, Japan).
# rats = experiment: Cardiovascular effects in anesthetized rats; format: in vivo; settings: 30 mg/kg intravenously
# Text: Test method: Rats (Sprague Dawley, 250-300 g) were randomized into two groups (n=6, equal sexes). After anesthesia, plastic tubing was introduced into a carotid artery of each animal and connected to pressure transducers to record mean artery pressure (MBP) and heart rate (HR). Another tube was introduced into the left ventricular chamber via the another carotid artery and connected to a pressure transducer. Left ventricular systolic pressure (LVSP) and the first order of differential of LVSP (dp/dt) as an index for inotropic effects were recorded. R-Bambuterol and racemic bambuterol hydrochloride were dissolved in saline and administrated intravenously at 30 mg/kg to each animal. The HR, MBP and Max dp/dt were measured before treatment (control) and after the treatments when the maximum response occurred, and 20 min after treatment as indication of recovery.
# [3] = in plasma; cited from earlier work
structure (smiles),measurement,setting,value
"CN(C)C(=O)Oc1cc(OC(=O)N(C)C)cc(C(O)CNC(C)(C)C)c1 (stereo not drawn) [RS-bambuterol, bambuterol]",% collapsed,[1]; 1 mg/kg oral,75%
same,Latency time,[1]; 1 mg/kg oral,156 ± 38 s
same,Number collapsed,"[1]; 1 mg/kg oral (n = 8), four hours before aerosol ovalbumin",6
same,% collapsed,[1]; 4 mg/kg oral,38%
same,Latency time,[1]; 4 mg/kg oral,174 ± 21 s
same,Number collapsed,[1]; 4 mg/kg oral (n = 8),3
same,% collapsed,[1]; 8 mg/kg oral,25%
same,Number collapsed,[1]; 8 mg/kg oral (n = 8),2
same,Latency time,"[1]; 8 mg/kg oral, listed as Racemic bambuterol",316 ± 36 s
same,Latency time,"[1]; 8 mg/kg oral, listed as racemic bambuterol",316 ± 36 s
same,"Concentration of the active parent form, terbutaline, in serum",[2],62 to 69 ng/mL
same,CHO lipid level,hyperlipidemia mice; Tyl + 10 mg,125.2 ± 19.8 mg/dL
same,HDL lipid level,hyperlipidemia mice; Tyl + 10 mg,50 ± 17 mg/dL
same,LDL lipid level,hyperlipidemia mice; Tyl + 10 mg,30 ± 6 mg/dL
same,VLDL lipid level,hyperlipidemia mice; Tyl + 10 mg,44.2 ± 14.4 mg/dL
same,TG lipid level,"hyperlipidemia mice; Tyl + 10 mg (10 mg/kg oral once a day for four days), plasma 24 hours after Tyloxapol",148 ± 45 mg/dL
same,"MBP 20 min after Δ, % of control",rats; 20 min after treatment,8.3%
same,"MBP, 20 min after Δ",rats; 20 min after treatment,1.1 ± 0.4 Kpa
same,"Maxdp/dt 20 min after Δ, % of control",rats; 20 min after treatment,4.8%
same,"Maxdp/dt, 20 min after Δ",rats; 20 min after treatment,13 ± 3.8 Kpa/sec
same,"HR 20 min after Δ, % of Control","rats; 20 min after treatment, listed as Rac-Bambuterol",9.5%
same,"HR 20 min after Δ, % of Control","rats; 20 min after treatment, listed as racemic bambuterol hydrochloride",9.5%
same,"HR Treatment Δ, % of Control",rats; maximum response,20.6%
same,"HR, Treatment Δ",rats; maximum response,85.8 ± 5 Beat/min
same,"MBP Treatment Δ, % of control",rats; maximum response,31.6%
same,"MBP, Treatment Δ",rats; maximum response,4.2 ± 0.5 Kpa
same,"Maxdp/dt, Treatment Δ",rats; maximum response,65.4 ± 9 Kpa/sec
same,"Maxdp/dt Treatment Δ, % of control","rats; maximum response, listed as Rac-Bambuterol",24.4%
same,"Maxdp/dt Treatment Δ, % of control","rats; maximum response, listed as racemic bambuterol",24.4%
same,Fraction of absorbed bambuterol hydrolyzed to terbutaline,[3],about 50%
